In general, IC50 refers to the concentration needed to halve the response being measured. Read a high IC50 as weaker potency in that assay.

The structures appear in SMILES notation.

The assay addresses c-Kit kinase (Homo sapiens (Human), UniProt P10721). The assay can be described thus: c-Kit biochemical assay (AlphaScreen kinase activity). The procedure, abridged: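 AlphaScreen: c-Kit phosphorylates biotin-(E4Y)3 (100 nM) at 10 μM ATP, pH 7.2 HEPES buffer with Mg/Mn, 5% DMSO, 1 h room temperature; streptavidin donor and PY30 acceptor beads detect product. Second format: 100 μM ATP, 30 nM biotin-(E4Y)10, pH 7.5. IC50 from 8-point 1:3 dilution curves.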

Sequence of c-Kit kinase (P10721 26-976): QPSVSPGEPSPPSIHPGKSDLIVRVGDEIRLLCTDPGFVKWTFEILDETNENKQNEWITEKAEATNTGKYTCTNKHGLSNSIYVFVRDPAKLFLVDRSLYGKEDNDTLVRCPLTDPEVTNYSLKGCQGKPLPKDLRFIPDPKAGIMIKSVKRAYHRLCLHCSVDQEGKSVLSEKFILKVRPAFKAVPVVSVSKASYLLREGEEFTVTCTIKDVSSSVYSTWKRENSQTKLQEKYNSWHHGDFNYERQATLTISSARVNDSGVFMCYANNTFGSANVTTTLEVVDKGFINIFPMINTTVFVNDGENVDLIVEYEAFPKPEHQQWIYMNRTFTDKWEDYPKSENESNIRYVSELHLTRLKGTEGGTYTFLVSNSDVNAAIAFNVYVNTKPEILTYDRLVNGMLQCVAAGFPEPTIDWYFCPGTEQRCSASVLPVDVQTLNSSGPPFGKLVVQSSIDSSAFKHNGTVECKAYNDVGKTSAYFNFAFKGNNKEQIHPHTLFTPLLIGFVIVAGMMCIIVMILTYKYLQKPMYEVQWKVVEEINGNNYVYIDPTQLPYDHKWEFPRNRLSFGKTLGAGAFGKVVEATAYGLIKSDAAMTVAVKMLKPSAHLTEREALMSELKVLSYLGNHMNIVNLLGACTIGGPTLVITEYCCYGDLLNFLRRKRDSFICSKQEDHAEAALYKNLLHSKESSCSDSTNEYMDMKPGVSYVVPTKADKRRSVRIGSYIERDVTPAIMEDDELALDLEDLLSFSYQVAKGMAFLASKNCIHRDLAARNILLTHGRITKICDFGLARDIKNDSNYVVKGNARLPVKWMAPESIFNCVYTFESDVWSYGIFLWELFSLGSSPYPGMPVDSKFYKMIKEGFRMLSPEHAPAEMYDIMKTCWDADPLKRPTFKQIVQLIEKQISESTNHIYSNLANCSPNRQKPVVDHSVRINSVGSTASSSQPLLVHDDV

In turn, `Cc1nc(C2CCN(c3ncnc4[nH]c(-c5ccc(F)cc5)cc34)CC2)[nH]c1-c1ccc(F)cc1` [P-3006, 6-(4-fluorophenyl)-4-[4-[5-(4-fluorophenyl)-4-methyl-1H-imidazol-2-yl]-1-piperidyl]-7H-pyrrolo[2,3-d]pyrimidine] yielded an IC50 of 0.0001 to 1 µM.

With `Cc1ccc(-c2[nH]c(C3CCN(c4ncnc5[nH]c(-c6ccc(C#N)cc6)cc45)CC3)nc2C)cc1` [P-3089, 4-[4-[4-[4-methyl-5-(p-tolyl)-1H-imidazol-2-yl]-1-piperidyl]-7H-pyrrolo[2,3-d]pyrimidin-6-yl]benzonitrile], the IC50 fell in the range of 0.0001 to 1 µM. The value for `Cc1ccc(-c2[nH]c(C3CCN(c4ncnc5[nH]c(-c6ccc(C#N)cc6)cc45)CC3)nc2C)s1` [P-3090, 4-[4-[4-[4-methyl-5-(5-methyl-2-thienyl)-1H-imidazol-2-yl]-1-piperidyl]-7H-pyrrolo[2,3-d]pyrimidin-6-yl]benzonitrile] was 0.0001 to 1 µM; that for `COc1cc(-c2cc3c(N4CCC(c5nc(C)c(-c6ccc(OC(C)C)cc6)[nH]5)CC4)ncnc3[nH]2)ccn1` [P-3091, 4-[4-[5-(4-isopropoxyphenyl)-4-methyl-1H-imidazol-2-yl]-1-piperidyl]-6-(2-methoxy-4-pyridyl)-7H-pyrrolo[2,3-d]pyrimidine] was 0.0001 to 1 µM.

Compound `Cc1nc(C2CCN(c3ncnc4[nH]c(-c5ccc(F)cc5)cc34)CC2)[nH]c1-c1ccc(OC(C)C)cc1` [P-3092, 6-(4-fluorophenyl)-4-[4-[5-(4-isopropoxyphenyl)-4-methyl-1H-imidazol-2-yl]-1-piperidyl]-7H-pyrrolo[2,3-d]pyrimidine] came in with an IC50 of 0.0001 to 1 µM. The value for `Cc1nc(C2CCN(c3ncnc4[nH]c(-c5ccc(C#N)cc5)cc34)CC2)[nH]c1-c1ccc(OC(C)C)cc1` [P-3093, 4-[4-[4-[5-(4-isopropoxyphenyl)-4-methyl-1H-imidazol-2-yl]-1-piperidyl]-7H-pyrrolo[2,3-d]pyrimidin-6-yl]benzonitrile] was 0.0001 to 1 µM; that for `CCOc1cc(-c2[nH]c(C3CCN(c4ncnc5[nH]c(-c6ccc(F)cc6)cc45)CC3)nc2C)ccc1C` [P-3094, 4-[4-[5-(3-ethoxy-4-methyl-phenyl)-4-methyl-1H-imidazol-2-yl]-1-piperidyl]-6-(4-fluorophenyl)-7H-pyrrolo[2,3-d]pyrimidine] was 0.0001 to 1 µM.
